The text below walks through data of patent US5427999A, “Amine adducts as corrosion inhibitors” (Exxon Chemical Patents Inc., priority 1991, dated 1995).

Test [1] relates to Skeletonema costatum. Particulars: normally a concentration of 1.3 mg/kg, 4320 min; cited from earlier work.
The test system of test [2] is Skeletonema costatum. The test is described as follows: Marine phytoplankton inhibition of growth rate. Format: cell-based, Skeletonema costatum (Greville) Cleve, Clone Skel-5. Particulars: 72 h, control compound, measured in this test, read-out: normal growth rate, measured in this test. The method, then:
Growth inhibition tests have also been carried out to assess the impact of the compounds on the, marine algae Skeletonema Costatum. This is a test which is becoming required by some offshore authorities, and is therefore of particular interest when considering the practical applications of the compounds.
Test organisms: Skeletonema costatum (Greville) Cleve, Clone Skel-5.
Incubation: 3 days at 14° C., in light/darkness cycles of 14 hrs/10 hrs.
Test samples: Aliquots of each sample are weighed into phytoplankton medium and extracted; moderate shaking for 20 hrs at 14° C.
Control compound: Na-dodecyl-sulphate. Normally a concentration of 1.3 mg/kg gives 30 to 70% of normal growth rate. Measured in this test: 30% to 55%.
Results were calculated as the concentration of compound required to inhibit 50% growth of algae during three days of exposure, termed EC50, given in mg/kg (ppm). The interval EC20 to EC80 is also given.

Turning to `CCCCCCCCCCCCOS(=O)(=O)O` [Na-dodecyl-sulphate], in test [1], the “normal growth rate, normally given by control compound” value is recorded as 30 to 70%. In addition, the activity at 1.3 mg/kg in test [2] fell in the range of 30 to 55%.
